Assay results reported in US20230101963A1, “TREATMENT OF MEDICAL INDICATION” (VALLAURIX TRADING SARL MC, priority 2020, published 2023).

Assays:
hMC2R = hMC2R (Homo sapiens, UniProt Q01718); test: agonist activity on hMC2R; assay type: biochemical; conditions: versus selective agonist affinity for hMC1R and hMC4R
[1] = in vivo
Source text: For the purpose of the invention, the BBB permeability refers to the ability of a compound to cross the Blood-Brain-Barrier (BBB) that is intact, i.e. not leaking or otherwise compromised. Permeability can be determined based on presence of central effects (or side-effects). A compound with BBB permeability can show central effects or side-effects.
BBB permeable is the ability of a compound to pass the BBB that is intact and for instance not leaking or otherwise compromised. Permeability can be determined based on presence of central effects (or side-effects) after peripheral administration of the compound.

hMC2R, sequence (Q01718 whole entry): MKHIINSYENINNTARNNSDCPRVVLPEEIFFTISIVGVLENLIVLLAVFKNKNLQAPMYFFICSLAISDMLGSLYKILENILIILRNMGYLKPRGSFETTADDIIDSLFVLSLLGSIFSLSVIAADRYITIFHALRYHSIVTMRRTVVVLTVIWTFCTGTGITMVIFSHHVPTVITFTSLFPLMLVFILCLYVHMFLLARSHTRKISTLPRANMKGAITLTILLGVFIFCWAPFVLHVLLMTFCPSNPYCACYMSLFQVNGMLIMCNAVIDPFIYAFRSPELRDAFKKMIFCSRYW
hMC2R, sequence (Q8TCY5 whole entry partner): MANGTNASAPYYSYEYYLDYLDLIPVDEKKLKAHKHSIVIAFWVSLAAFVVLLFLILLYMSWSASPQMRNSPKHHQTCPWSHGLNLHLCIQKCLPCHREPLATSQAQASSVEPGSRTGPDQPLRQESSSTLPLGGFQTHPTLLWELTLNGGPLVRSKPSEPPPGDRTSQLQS

activity on hMC2R (hMC2R): none
central activity in human, indicating passage of the human blood-brain-barrier [1]: show central activity in human
Structure (SMILES): CCCC[C@H](NC(C)=O)C(=O)N[C@H]1CC(=O)NCCCC[C@@H](C(=O)O)NC(=O)[C@H](Cc2c[nH]c3ccccc23)NC(=O)[C@H](CCCN=C(N)N)NC(=O)[C@@H](Cc2ccccc2)NC(=O)[C@H](Cc2cnc[nH]2)NC1=O [bremelanotide, Ac-Nle-cyclo-(Asp-His-D-Phe-Arg-Trp-Lys-OH)]
